Each molecule was assayed on RKO p21 uninduced (proliferating) colon adenocarcinoma cells (assay: Alamar Blue cell viability assay, RKO p21 uninduced (proliferating)). Conditions: Homo sapiens, Table B3, anti-proliferative/cytotoxic activity, 72 hours, read-out: −log EC50 RKO p21 uninduced (proliferating) (converted).
Type: cell-based
Summary of the method: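 RKO p21 or p27 subclones grown without Ponasterone A, i.e. proliferating, exposed 24 h after seeding to semi-log compound dilutions in DMEM/10% FCS (1% DMSO controls) for 72 h at 37° C. Alamar Blue fluorescence (544/590 nm) read relative to untreated cells; EC50 from dose-response curves, given as −log EC50 (mol/l).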
`CCN(CCO)CCN1C(=O)N2[C@H](c3cccc(O)c3)c3[nH]c4ccc(Br)cc4c3C[C@@]2(C)C1=O` (racemic) [Example 379, (3aSR,10RS)-6-Bromo-2-{2-[ethyl-(2-hydroxy-ethyl)-amino]-ethyl}-10-(3-hydroxy-phenyl)-3a-methyl-3a,4,9,10-tetrahydro-2,9,10a-triaza-cyclopenta[b]fluorene-1,3-dione] was tested, and the EC50 was at most 39.8 nM.
With `C#CCN(C)CCCN1C(=O)N2[C@H](c3cccc(O)c3)c3[nH]c4ccc(Cl)cc4c3C[C@@]2(C)C1=O` (racemic) [Example 170, (3aSR,10RS)-6-Chloro-10-(3-hydroxy-phenyl)-3a-methyl-2-[3-(methyl-prop-2-ynyl-amino)-propyl]-3a,4,9,10-tetrahydro-2,9,10a-triaza-cyclopenta[b]fluorene-1,3-dione] the EC50 was 39.8 to 251 nM.
`CCN(CCCN1C(=O)N2[C@H](c3cccc(O)c3)c3[nH]c4ccc(Br)cc4c3C[C@@]2(C)C1=O)CCOC` (racemic) [Example 217, (3aSR,10RS)-6-Bromo-2-{3-[ethyl-(2-methoxy-ethyl)-amino]-propyl}-10-(3-hydroxy-phenyl)-3a-methyl-3a,4,9,10-tetrahydro-2,9,10a-triaza-cyclopenta[b]fluorene-1,3-dione] was tested, and the EC50 was at most 39.8 nM.
In the case of `COc1cc2c3c([nH]c2cc1F)[C@@H](c1cccc(O)c1)N1C(=O)N(CCCNCC(C)C)C(=O)[C@]1(C)C3` (racemic) [Example 332, (3aSR,10RS)-7-Fluoro-10-(3-hydroxy-phenyl)-2-(3-isobutylamino-propyl)-6-methoxy-3a-methyl-3a,4,9,10-tetrahydro-2,9,10a-triaza-cyclopenta[b]fluorene-1,3-dione], the EC50 is reported as 39.8 to 251 nM.
With `C[C@@]12Cc3c([nH]c4ccc(OC(F)F)cc34)[C@@H](c3cccc(O)c3)N1C(=O)N(CCN1CCCCC1)C2=O` (racemic) [Example 280, (3aSR,10RS)-6-(1,1-Difluoro-methoxy)-10-(3-hydroxy-phenyl)-3a-methyl-2-(2-piperidin-1-yl-ethyl)-3a,4,9,10-tetrahydro-2,9,10a-triaza-cyclopenta[b]fluorene-1,3-dione] the EC50 was 39.8 to 251 nM.
Molecule `CCN(C)CCCN1C(=O)N2[C@H](c3cccc(O)c3)c3[nH]c4ccc(OC(F)F)cc4c3C[C@@]2(C)C1=O` (racemic) [Example 247, (3aSR,10RS)-6-(1,1-Difluoro-methoxy)-2-[3-(ethyl-methyl-amino)-propyl]-10-(3-hydroxy-phenyl)-3a-methyl-3a,4,9,10-tetrahydro-2,9,10a-triaza-cyclopenta[b]fluorene-,3-dione] has an EC50 of at most 39.8 nM.
`COc1cc2c3c([nH]c2cc1F)[C@@H](c1cccc(O)c1)N1C(=O)N(CCCN2CCOCC2)C(=O)[C@]1(C)C3` (racemic) [Example 321, (3aSR,10RS)-7-Fluoro-10-(3-hydroxy-phenyl)-6-methoxy-3a-methyl-2-(3-morpholin-4-yl-propyl)-3a,4,9,10-tetrahydro-2,9,10a-triaza-cyclopenta[b]fluorene-1,3-dione] was tested, and the EC50 was 39.8 to 251 nM.
In the case of `C=CCN(C)CCCN1C(=O)N2[C@H](c3cccc(O)c3)c3[nH]c4ccc(OC(F)F)cc4c3C[C@@]2(C)C1=O` (racemic) [Example 184, (3aSR,10RS)-2-[3-(Allyl-methyl-amino)-propyl]-6-(1,1-difluoro-methoxy)-10-(3-hydroxy-phenyl)-3a-methyl-3a,4,9,10-tetrahydro-2,9,10a-triaza-cyclopenta[b]fluorene-1,3-dione], the EC50 is reported as 39.8 to 251 nM.
In the case of `COc1ccc2[nH]c3c(c2c1)C[C@@]1(C)C(=O)N(CCCNC2CC2)C(=O)N1[C@@H]3c1cccc(O)c1` [Example 537, (3aS,10R)-2-(3-Cyclopropylamino-propyl)-10-(3-hydroxy-phenyl)-6-methoxy-3a-methyl-3a,4,9,10-tetrahydro-2,9,10a-triaza-cyclopenta[b]fluorene-1,3-dione], the EC50 is reported as at most 39.8 nM.
For `CCOc1ccc2[nH]c3c(c2c1)C[C@@]1(C)C(=O)N(CCCN2CCC2)C(=O)N1[C@@H]3c1cccc(O)c1` (racemic) [Example 198, (3aSR,10RS)-2-(3-Azetidin-1-yl-propyl)-6-ethoxy-10-(3-hydroxy-phenyl)-3a-methyl-3a,4,9,10-tetrahydro-2,9,10a-triaza-cyclopenta[b]fluorene-1,3-dione], the EC50 was 39.8 to 251 nM.
`CC1CCN(CCN2C(=O)N3[C@H](c4cccc(O)c4)c4[nH]c5cc(F)c(Cl)cc5c4C[C@@]3(C)C2=O)CC1` (racemic) [Example 357, (3aSR,10RS)-6-Chloro-7-fluoro-10-(3-hydroxy-phenyl)-3a-methyl-2-[2-(4-methyl-piperidin-1-yl)-ethyl]-3a,4,9,10-tetrahydro-2,9,10a-triaza-cyclopenta[b]fluorene-1,3-dione] showed an EC50 of 39.8 to 251 nM.
`C#CCNCCCN1C(=O)N2[C@H](c3cccc(O)c3)c3[nH]c4cc(F)c(Cl)cc4c3C[C@@]2(C)C1=O` (racemic) [Example 466, (3aSR,10RS)-6-Chloro-7-fluoro-10-(3-hydroxy-phenyl)-3a-methyl-2-(3-prop-2-ynylamino-propyl)-3a,4,9,10-tetrahydro-2,9,10a-triaza-cyclopenta[b]fluorene-1,3-dione] gave an EC50 of 39.8 to 251 nM.
Work on `CN1CCN(CCCN2C(=O)N3[C@H](c4cccc(O)c4)c4[nH]c5ccc(Cl)cc5c4C[C@@]3(C)C2=O)CC1` (racemic) [Example 175, (3aSR,10RS)-6-Chloro-10-(3-hydroxy-phenyl)-3a-methyl-2-[3-(4-methyl-piperazin-1-yl)-propyl]-3a,4,9,10-tetrahydro-2,9,10a-triaza-cyclopenta[b]fluorene-1,3-dione] yielded an EC50 of at most 39.8 nM.
For `CC1CCN(CCCN2C(=O)N3[C@H](c4cccc(O)c4)c4[nH]c5cc(F)c(Cl)cc5c4C[C@@]3(C)C2=O)CC1` (racemic) [Example 479, (3aSR,10RS)-6-Chloro-7-fluoro-10-(3-hydroxy-phenyl)-3a-methyl-2-[3-(4-methyl-piperidin-1-yl)-propyl]-3a,4,9,10-tetrahydro-2,9,10a-triaza-cyclopenta[b]fluorene-1,3-dione], the EC50 was 39.8 to 251 nM.
Work on `CCNCCN1C(=O)N2[C@H](c3cccc(O)c3)c3[nH]c4ccc(OC(F)F)cc4c3C[C@@]2(C)C1=O` (racemic) [Example 284, (3aSR,10RS)-6-(1,1-Difluoro-methoxy)-2-(2-ethylamino-ethyl)-10-(3-hydroxy-phenyl)-3a-methyl-3a,4,9,10-tetrahydro-2,9,10a-triaza-cyclopenta[b]fluorene-1,3-dione] yielded an EC50 of at most 39.8 nM.
`CNCCN1C(=O)N2[C@H](c3cccc(O)c3)c3[nH]c4ccc(OC)c(F)c4c3C[C@@]2(C)C1=O` (racemic) [Example 406, (3aSR,10RS)-5-Fluoro-10-(3-hydroxy-phenyl)-6-methoxy-3a-methyl-2-(2-methylamino-ethyl)-3a,4,9,10-tetrahydro-2,9,10a-triaza-cyclopenta[b]fluorene-1,3-dione] gave an EC50 of 39.8 to 251 nM.
With `COCCNCCCN1C(=O)N2[C@H](c3cccc(O)c3)c3[nH]c4cc(F)c(Cl)cc4c3C[C@@]2(C)C1=O` (racemic) [Example 462, (3aSR,10RS)-6-Chloro-7-fluoro-10-(3-hydroxy-phenyl)-2-[3-(2-methoxy-ethylamino)-propyl]-3a-methyl-3a,4,9,10-tetrahydro-2,9,10a-triaza-cyclopenta[b]fluorene-1,3-dione] the EC50 was at most 39.8 nM.
Molecule `C[C@@]12Cc3c([nH]c4ccc(OC(F)F)cc34)[C@@H](c3cccc(O)c3)N1C(=O)N(CCCNC1CC1)C2=O` (racemic) [Example 202, (3aSR,10RS)-2-(3-Cyclopropylamino-propyl)-6-(1,1-difluoro-methoxy)-10-(3-hydroxy-phenyl)-3a-methyl-3a,4,9,10-tetrahydro-2,9,10a-triaza-cyclopenta[b]fluorene-1,3-dione] has an EC50 of 39.8 to 251 nM.
For `CC(=O)N1CCN(CCN2C(=O)N3[C@H](c4cccc(O)c4)c4[nH]c5ccc(OC(F)F)cc5c4C[C@@]3(C)C2=O)CC1` (racemic) [Example 295, (3aSR,10RS)-2-[2-(4-Acetyl-piperazin-1-yl)-ethyl]-6-(1,1-difluoro-methoxy)-10-(3-hydroxy-phenyl)-3a-methyl-3a,4,9,10-tetrahydro-2,9,10a-triaza-cyclopenta[b]fluorene-1,3-dione], the EC50 was 39.8 to 251 nM.
`C=CCNCCCN1C(=O)N2[C@H](c3cccc(O)c3)c3[nH]c4cc(F)c(OC)cc4c3C[C@@]2(C)C1=O` (racemic) [Example 334, (3aSR,10RS)-2-(3-Allylamino-propyl)-7-fluoro-10-(3-hydroxy-phenyl)-6-methoxy-3a-methyl-3a,4,9,10-tetrahydro-2,9,10a-triaza-cyclopenta[b]fluorene-1,3-dione] showed an EC50 of 39.8 to 251 nM.
`CCN(CCO)CCCN1C(=O)N2[C@H](c3cccc(O)c3)c3[nH]c4ccc(Cl)cc4c3C[C@@]2(C)C1=O` (racemic) [Example 168, (3aSR,10RS)-6-Chloro-2-{3-[ethyl-(2-hydroxy-ethyl)-amino]-propyl}-10-(3-hydroxy-phenyl)-3a-methyl-3a,4,9,10-tetrahydro-2,9,10a-triaza-cyclopenta[b]fluorene-1,3-dione] gave an EC50 of at most 39.8 nM.
In the case of `CC(C)(C)NCCN1C(=O)N2[C@H](c3cccc(O)c3)c3[nH]c4ccc(OC(F)F)cc4c3C[C@@]2(C)C1=O` (racemic) [Example 273, (3aSR,10RS)-2-(2-tert-Butylamino-ethyl)-6-(1,1-difluoro-methoxy)-10-(3-hydroxy-phenyl)-3a-methyl-3a,4,9,10-tetrahydro-2,9,10a-triaza-cyclopenta[b]fluorene-1,3-dione], the EC50 is reported as at most 39.8 nM.
Work on `CCN(CCO)CCN1C(=O)N2[C@H](c3cccc(O)c3)c3[nH]c4cc(F)c(Cl)cc4c3C[C@@]2(C)C1=O` (racemic) [Example 349, (3aSR,10RS)-6-Chloro-2-{2-[ethyl-(2-hydroxy-ethyl)-amino]-ethyl}-7-fluoro-10-(3-hydroxy-phenyl)-3a-methyl-3a,4,9,10-tetrahydro-2,9,10a-triaza-cyclopenta[b]fluorene-1,3-dione] yielded an EC50 of 39.8 to 251 nM.
